Measurements published in ChEMBL document CHEMBL1201862, “PubChem BioAssay data set” (2004).
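Step 1: Grow cells in 96-well plates. Step 2: Expose to compound for 48 hours at 5 concentrations. Step 3: Interpolate endpoints linearly; if unreached, use highest concentration. GI50 is the concentration that inhibits growth by half.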 Calls of active or inactive are those of the source. Rule as the data show it: active = GI50 up to about 1.1 µM and inactive = higher.

Key:
Test in all cases: inhibition of tumour cell growth, NCI panel, 48 h
[1] = test system: ACHN
[2] = test system: COLO 205
[3] = test system: HCC 2998
[4] = test system: HL-60
[5] = test system: HOP-62
[6] = test system: IGROV-1
[7] = test system: OVCAR-3
[8] = test system: OVCAR-5
[9] = test system: RPMI-8226
[10] = test system: SF-295
[11] = test system: SF-539
[12] = test system: SK-MEL-28
[13] = test system: SK-OV-3
[14] = test system: SNB-75
[15] = test system: SR
[16] = test system: SW-620
[17] = test system: TK-10
[18] = test system: U-251
[19] = test system: UACC-62
[20] = test system: UO-31

Cc1cc(C)nc(NC(=S)Nc2cccc(Cl)c2)c1
GI50 [1]: 28.1 µM (inactive) | GI50 [2]: > 80.9 µM (inactive) | GI50 [3]: 65.5 µM (inactive) | GI50 [4]: > 100 µM (inactive) | GI50 [5]: > 75.7 µM (inactive) | GI50 [6]: 16.1 µM (inactive) | GI50 [7]: > 100 µM (inactive) | GI50 [8]: > 100 µM (inactive) | GI50 [9]: > 100 µM (inactive) | GI50 [10]: > 100 µM (inactive) | GI50 [11]: > 100 µM (inactive) | GI50 [12]: > 100 µM (inactive) | GI50 [13]: > 100 µM (inactive) | GI50 [14]: > 100 µM (inactive) | GI50 [15]: 16.6 µM (inactive) | GI50 [16]: > 100 µM (inactive) | GI50 [17]: > 35.9 µM (inactive) | GI50 [18]: > 100 µM (inactive) | GI50 [19]: > 100 µM (inactive) | GI50 [20]: > 100 µM (inactive)

CCN(CC)CCNC(=O)c1cn2c(ccc3sc4ccccc4c(=O)c32)n1
GI50 [1]: 3.64 µM (inactive) | GI50 [2]: 6.25 µM (inactive) | GI50 [3]: 10.1 µM (inactive) | GI50 [4]: 5.26 µM (inactive) | GI50 [5]: 5.96 µM (inactive) | GI50 [6]: 5.38 µM (inactive) | GI50 [7]: 12.8 µM (inactive) | GI50 [8]: 8.57 µM (inactive) | GI50 [9]: 5.62 µM (inactive) | GI50 [10]: 10.5 µM (inactive) | GI50 [11]: 10.8 µM (inactive) | GI50 [12]: 10.4 µM (inactive) | GI50 [13]: 12.1 µM (inactive) | GI50 [14]: 16.3 µM (inactive) | GI50 [15]: 1.25 µM (inactive) | GI50 [16]: 6.25 µM (inactive) | GI50 [17]: 14.4 µM (inactive) | GI50 [18]: 13.7 µM (inactive) | GI50 [19]: 15.1 µM (inactive) | GI50 [20]: 7.03 µM (inactive)

COc1ccc(S(=O)(=O)O)cc1-n1nc(C(=O)Nc2ccccc2)n[n+]1-c1cc(S(=O)(=O)[O-])ccc1OC
GI50 [1]: > 100 µM (inactive) | GI50 [2]: > 100 µM (inactive) | GI50 [3]: > 100 µM (inactive) | GI50 [4]: > 100 µM (inactive) | GI50 [5]: > 100 µM (inactive) | GI50 [6]: > 100 µM (inactive) | GI50 [7]: > 100 µM (inactive) | GI50 [8]: > 100 µM (inactive) | GI50 [9]: > 100 µM (inactive) | GI50 [10]: > 100 µM (inactive) | GI50 [11]: > 100 µM (inactive) | GI50 [12]: > 100 µM (inactive) | GI50 [13]: > 100 µM (inactive) | GI50 [14]: > 100 µM (inactive) | GI50 [15]: > 100 µM (inactive) | GI50 [16]: > 100 µM (inactive) | GI50 [17]: > 100 µM (inactive) | GI50 [18]: > 100 µM (inactive) | GI50 [19]: > 100 µM (inactive) | GI50 [20]: > 100 µM (inactive)

C=C1C(=O)OC2CC1C(OC(=O)/C=C/c1ccccc1)C/C(C)=C/CC/C(C)=C/CCC2(C)O (stereo not given)
GI50 [1]: 1.61 µM (inactive) | GI50 [2]: 3.41 µM (inactive) | GI50 [3]: 1.58 µM (inactive) | GI50 [4]: 0.308 µM (active) | GI50 [5]: 1.8 µM (inactive) | GI50 [6]: 1.56 µM (inactive) | GI50 [7]: 1.52 µM (inactive) | GI50 [8]: 1.75 µM (inactive) | GI50 [9]: 0.433 µM (active) | GI50 [10]: 1.56 µM (inactive) | GI50 [11]: 1.46 µM (inactive) | GI50 [12]: 2.3 µM (inactive) | GI50 [13]: 2.19 µM (inactive) | GI50 [14]: 1.43 µM (inactive) | GI50 [15]: 0.778 µM (active) | GI50 [16]: 1.04 µM (active) | GI50 [17]: 1.65 µM (inactive) | GI50 [18]: 1.84 µM (inactive) | GI50 [19]: 1.95 µM (inactive) | GI50 [20]: 1.61 µM (inactive)

CCCCC1(C(NC(=O)c2ccccc2Cl)c2ccncc2)C(=O)N(c2ccccc2)N(c2ccccc2)C1=O (stereo not given)
GI50 [1]: 36.6 µM (inactive) | GI50 [2]: 22.6 µM (inactive) | GI50 [3]: 57.5 µM (inactive) | GI50 [4]: 17.6 µM (inactive) | GI50 [5]: > 100 µM (inactive) | GI50 [6]: > 100 µM (inactive) | GI50 [7]: 60 µM (inactive) | GI50 [8]: > 100 µM (inactive) | GI50 [9]: 21.2 µM (inactive) | GI50 [10]: 55.7 µM (inactive) | GI50 [11]: 88.1 µM (inactive) | GI50 [12]: > 100 µM (inactive) | GI50 [13]: 74.1 µM (inactive) | GI50 [14]: 12.4 µM (inactive) | GI50 [15]: 55.1 µM (inactive) | GI50 [16]: 78.7 µM (inactive) | GI50 [17]: 41 µM (inactive) | GI50 [18]: 34 µM (inactive) | GI50 [19]: 69.5 µM (inactive) | GI50 [20]: 33 µM (inactive)

Cc1ccc(S(=O)(=O)N2CCN(S(=O)(=O)c3ccc(C)cc3)CCN(S(=O)(=O)c3ccc(C)cc3)Cc3cc(Br)c(Br)cc3CN(S(=O)(=O)c3ccc(C)cc3)CC2)cc1
GI50 [1]: > 100 µM (inactive) | GI50 [2]: > 100 µM (inactive) | GI50 [3]: > 100 µM (inactive) | GI50 [4]: > 100 µM (inactive) | GI50 [5]: > 100 µM (inactive) | GI50 [6]: 85.5 µM (inactive) | GI50 [7]: > 100 µM (inactive) | GI50 [8]: 92.3 µM (inactive) | GI50 [9]: > 100 µM (inactive) | GI50 [10]: > 100 µM (inactive) | GI50 [11]: > 100 µM (inactive) | GI50 [12]: > 100 µM (inactive) | GI50 [13]: > 100 µM (inactive) | GI50 [14]: 55.6 µM (inactive) | GI50 [15]: > 100 µM (inactive) | GI50 [16]: 97.7 µM (inactive) | GI50 [17]: 69.5 µM (inactive) | GI50 [18]: 82 µM (inactive) | GI50 [19]: > 100 µM (inactive) | GI50 [20]: > 100 µM (inactive)

Cc1ccc(O)c(C(c2cccc(C(c3cc(C)ccc3O)c3cc(C)ccc3O)c2)c2cc(C)ccc2O)c1
GI50 [1]: 1.73 µM (inactive) | GI50 [2]: 1.21 µM (inactive) | GI50 [3]: 1.86 µM (inactive) | GI50 [4]: 2.01 µM (inactive) | GI50 [5]: 2.06 µM (inactive) | GI50 [6]: 1.56 µM (inactive) | GI50 [7]: 2.21 µM (inactive) | GI50 [8]: 1.69 µM (inactive) | GI50 [9]: 1.55 µM (inactive) | GI50 [10]: 2.24 µM (inactive) | GI50 [11]: 1.75 µM (inactive) | GI50 [12]: 1.83 µM (inactive) | GI50 [13]: 1.87 µM (inactive) | GI50 [14]: 1.93 µM (inactive) | GI50 [15]: 2.73 µM (inactive) | GI50 [16]: 1.66 µM (inactive) | GI50 [17]: 1.82 µM (inactive) | GI50 [18]: 1.77 µM (inactive) | GI50 [19]: 1.99 µM (inactive) | GI50 [20]: 1.91 µM (inactive)

O=C(NN=C1NCCCN1)c1ccco1
GI50 [1]: > 100 µM (inactive) | GI50 [2]: > 100 µM (inactive) | GI50 [3]: > 100 µM (inactive) | GI50 [4]: > 100 µM (inactive) | GI50 [5]: > 100 µM (inactive) | GI50 [6]: > 100 µM (inactive) | GI50 [7]: > 100 µM (inactive) | GI50 [8]: > 100 µM (inactive) | GI50 [9]: > 100 µM (inactive) | GI50 [10]: > 100 µM (inactive) | GI50 [11]: > 100 µM (inactive) | GI50 [12]: > 100 µM (inactive) | GI50 [13]: > 100 µM (inactive) | GI50 [14]: > 100 µM (inactive) | GI50 [15]: > 100 µM (inactive) | GI50 [16]: > 100 µM (inactive) | GI50 [17]: > 100 µM (inactive) | GI50 [18]: > 100 µM (inactive) | GI50 [19]: > 100 µM (inactive) | GI50 [20]: > 100 µM (inactive)

CC1=NC2(CCCCC2)N(Cl)C(=O)C1SC#N (stereo not given)
GI50 [1]: 17.7 µM (inactive) | GI50 [2]: 63.1 µM (inactive) | GI50 [3]: 20.7 µM (inactive) | GI50 [4]: > 100 µM (inactive) | GI50 [5]: 22.9 µM (inactive) | GI50 [6]: 18.2 µM (inactive) | GI50 [7]: 19.6 µM (inactive) | GI50 [8]: 22.8 µM (inactive) | GI50 [9]: > 10 µM (inactive) | GI50 [10]: 18.7 µM (inactive) | GI50 [11]: 19.5 µM (inactive) | GI50 [12]: 18 µM (inactive) | GI50 [13]: > 10 µM (inactive) | GI50 [14]: 20.7 µM (inactive) | GI50 [15]: > 100 µM (inactive) | GI50 [16]: 12.8 µM (inactive) | GI50 [17]: 20.3 µM (inactive) | GI50 [18]: 19.4 µM (inactive) | GI50 [19]: 13.4 µM (inactive) | GI50 [20]: 18.8 µM (inactive)

Cc1nc2ccc(S(=O)(=O)Nc3ccc(Cl)cc3)cc2c(=O)n1NC(=O)CNc1ccc(Cl)cc1
GI50 [1]: > 100 µM (inactive) | GI50 [2]: > 100 µM (inactive) | GI50 [3]: > 100 µM (inactive) | GI50 [4]: > 100 µM (inactive) | GI50 [5]: > 100 µM (inactive) | GI50 [6]: > 100 µM (inactive) | GI50 [7]: > 100 µM (inactive) | GI50 [8]: > 100 µM (inactive) | GI50 [9]: > 100 µM (inactive) | GI50 [10]: > 100 µM (inactive) | GI50 [11]: > 100 µM (inactive) | GI50 [12]: > 100 µM (inactive) | GI50 [13]: > 100 µM (inactive) | GI50 [14]: > 100 µM (inactive) | GI50 [15]: > 100 µM (inactive) | GI50 [16]: > 100 µM (inactive) | GI50 [17]: > 100 µM (inactive) | GI50 [18]: > 100 µM (inactive) | GI50 [19]: > 100 µM (inactive) | GI50 [20]: > 100 µM (inactive)
